Article PMC11272598, “RG7774 (Vicasinabin), an orally bioavailable cannabinoid receptor 2 (CB2R) agonist, decreases retinal vascular permeability, leukocyte adhesion, and ocular inflammation in animal models” (Frontiers in Pharmacology, 2024)

Assays:
Ocular tissue PK in rats = assay type: in vivo; conditions: 26 days of oral administration, 3 and 30 mg/kg/day
Procedure: The plasma PK profile of RG7774 was assessed in adult male C57BL/6J mice and female Wistar rats (Charles River, Cologne, Germany) housed in a controlled environment (temperature, humidity, and 12 h light/dark cycle) with unrestricted access to food and water. The ocular PK profile of RG7774 was assessed in adult female […] rats (Charles River, Mattawan, MI, United States) housed in a controlled environment (21°C–22°C temperature, 40%–60%, humidity, and 12 h light/dark cycle) with unrestricted access to food and water and conducted according to local regulations by EyeCRO (Ann Arbor, MI, United States).
[…] […] Samples were collected from the tail vein or via heart puncture (terminal) and prepared within 30 min of collection by centrifugation at 3,000 g for 5 min at 4°C and were immediately frozen. RG7774 concentrations in plasma and homogenized tissues were determined using LC-MS/MS. PK parameters were estimated by non-compartmental analysis of plasma data using Phoenix WinNonlin software (Certara, Princeton, NJ, United States).

[1] = target: T1, endogenous CB2R in mouse spleen tissues (Mus musculus, UniProt P47936); test: Competition binding, [^3H]-RO6753361, mouse spleen membranes
T1 construct: from tissue; host or cells: mouse spleen membranes
T1 sequence (P47936 whole entry): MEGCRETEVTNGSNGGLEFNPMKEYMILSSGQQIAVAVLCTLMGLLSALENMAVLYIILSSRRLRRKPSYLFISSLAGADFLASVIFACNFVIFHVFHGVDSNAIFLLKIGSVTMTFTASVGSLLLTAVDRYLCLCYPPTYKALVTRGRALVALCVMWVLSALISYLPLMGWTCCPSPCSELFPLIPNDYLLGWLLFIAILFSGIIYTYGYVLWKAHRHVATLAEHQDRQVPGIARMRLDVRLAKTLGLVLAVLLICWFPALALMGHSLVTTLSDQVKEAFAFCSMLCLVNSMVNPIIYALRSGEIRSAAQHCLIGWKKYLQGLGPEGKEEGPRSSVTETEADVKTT
Procedure: Competition and saturation binding assays were performed using the radiolabeled CB1R/CB2R agonist [^3H]-CP55940 (PerkinElmer, Waltham, MA, United States) in recombinant cell systems, and the newly developed CB2R-selective agonist [^3H]-RO6753361 ([Chicca et al., 2024]) in cells expressing endogenous CB1R/CB2R. Competition assays were conducted by incubating 5, 40, or 40 µg of membrane protein from CHO cells, Jurkat cells or spleen cells, respectively, with 1.5 nM [^3H]-CP55940 or 1.5 nM [^3H]-RO6753361 in the presence or absence of increasing concentrations of ligand (RG7774 or control) for 2 h at 30°C in a final volume of 0.2 mL of assay buffer (50 mmol/L Tris-HCl, 5 mmol/L MgCl2, 2.5 mmol/L EDTA, and 0.5% fatty acid-free BSA [pH 7.4] and 1% DMSO), with gentle shaking. Saturation binding assays were conducted by incubating 1–3 μg, 40 μg, or 30–40 μg of membrane protein from CHO cells, Jurkat cells, or spleen tissue, respectively, with 12 concentrations in the range of 80–0.039 nM [^3H]-CP55940 or [^3H]-RO6753361 for 2 h at 30°C in a final volume of 0.2 mL/well of assay buffer without DMSO. […] IC50 values and Hill slopes were determined with a 4-parameter logistic model using ActivityBase (ID Business Solution, Guilford, United Kingdom) and pKi values were determined using the Cheng-Prusoff equation ([Cheng and Prusoff, 1973]).

[2] = Thermodynamic solubility (THESA/FaSSIF/FeSSIF); assay type: physicochemical
Description: S2.2 Thermodynamic solubility assay (THESA)

Mouse DAGL = Mouse DAGL assay (brain); assay type: biochemical; conditions: RG7774 10 µM
Procedure: Mouse brain or human HaCaT cells (CLS Cell Lines Service, GmbH, Eppelheim, Germany) were homogenized in 50 mM Tris-HCl (pH 7.4) using a glass potter, and homogenates were centrifuged at 4°C sequentially at 800 g (10 min) and 10,000 g (30 min). The final pellet (80–200 µg) was resuspended in 50 mM Tris-HCl (pH 7.4) containing 10 mM CaCl2 and incubated at 37°C for 30 min with sn-1[^14C]-stearoyl-2-arachidonoyl-glycerol (100 µM) (ARC, MO, USA). Reactions were stopped by adding chloroform/methanol (2:1, v/v), and the organic phase was dried and fractionated by thin-layer chromatography on silica gel, as previously reported. Levels of 1[^14C]-stearoyl acid radioactivity were determined by cutting the appropriate band from the gel and analyzing using a β-scintillation counter. Mouse cells were preincubated for 15 min with RG7774 (10 µM) and added to the incubation medium. Human cells were preincubated for 15 min with 8 different concentrations of RG7774 (0.1-500 µM) and added to the incubation medium. Control experiments were carried out in the presence of the selective DAGL inhibitor, D053 (10 µM).

endogenous CB2R = target: T2, endogenous CB2R (Homo sapiens, UniProt P34972); test: pERK assay in Jurkat cells; assay type: cell-based
T2 construct: endogenous CB2R in human Jurkat cells; endogenous in cells; host or cells: Jurkat cells
T2 sequence (P34972 whole entry): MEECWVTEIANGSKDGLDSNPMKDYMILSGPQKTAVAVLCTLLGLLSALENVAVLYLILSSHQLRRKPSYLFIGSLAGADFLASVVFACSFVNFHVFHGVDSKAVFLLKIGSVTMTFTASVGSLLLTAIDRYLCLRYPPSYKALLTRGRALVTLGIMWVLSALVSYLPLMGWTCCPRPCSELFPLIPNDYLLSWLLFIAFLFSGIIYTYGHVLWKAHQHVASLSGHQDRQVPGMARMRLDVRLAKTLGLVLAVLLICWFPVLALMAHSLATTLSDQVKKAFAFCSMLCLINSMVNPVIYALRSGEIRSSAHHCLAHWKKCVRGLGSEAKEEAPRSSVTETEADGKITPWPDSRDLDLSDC
Procedure: ERK phosphorylation in response to RG7774 treatment was measured in Jurkat cells as described in ([Saroz et al., 2019]) using the AlphaLISA SureFire Ultra p-Erk1/2 assay (PerkinElmer, Waltham, MA, United States). Cells (200,000 per 96 well plate) were seeded in 40 μL RPMI 1640 assay medium (Fisher Scientific, Schwerte, Germany) containing 10% FCS, 2 mM L-Glu, and 25 mM HEPES) and incubated for 1 h at 37°C in 5% CO2. Cells were treated with increasing concentrations of RG7774 in 40 μL assay medium. Plates were shaken for 30 s (sec) at 450 rpm, incubated for 2 min at 37°C in 5% CO2, and placed on ice. Ice-cold lysis buffer (20 μL 5x) (supplied with the assay kit) was added, plates were shaken (500 rpm) for 10 min at 4°C, and 10 μL of lysate was transferred to a 384-well Optiplate (PerkinElmer, Waltham, MA, United States). The AlphaLISA assay was performed according to the manufacturer’s protocol. Plates were read using Tecan Infinite M1000Pro (excitation 680 nm for 100 ms, integration time 300 ms, and emission 615 nm).

Human 15-LOX = target: T3, Human 15-LOX (Homo sapiens, UniProt O15296); test: Human 15-LOX assay; assay type: biochemical; conditions: RG7774 10 µM; read-out: Mean ± SEM % inhibition of control, Human 15-LOX
T3 construct: purchased Cayman Chemical Company #10011263
T3 sequence (O15296 whole entry): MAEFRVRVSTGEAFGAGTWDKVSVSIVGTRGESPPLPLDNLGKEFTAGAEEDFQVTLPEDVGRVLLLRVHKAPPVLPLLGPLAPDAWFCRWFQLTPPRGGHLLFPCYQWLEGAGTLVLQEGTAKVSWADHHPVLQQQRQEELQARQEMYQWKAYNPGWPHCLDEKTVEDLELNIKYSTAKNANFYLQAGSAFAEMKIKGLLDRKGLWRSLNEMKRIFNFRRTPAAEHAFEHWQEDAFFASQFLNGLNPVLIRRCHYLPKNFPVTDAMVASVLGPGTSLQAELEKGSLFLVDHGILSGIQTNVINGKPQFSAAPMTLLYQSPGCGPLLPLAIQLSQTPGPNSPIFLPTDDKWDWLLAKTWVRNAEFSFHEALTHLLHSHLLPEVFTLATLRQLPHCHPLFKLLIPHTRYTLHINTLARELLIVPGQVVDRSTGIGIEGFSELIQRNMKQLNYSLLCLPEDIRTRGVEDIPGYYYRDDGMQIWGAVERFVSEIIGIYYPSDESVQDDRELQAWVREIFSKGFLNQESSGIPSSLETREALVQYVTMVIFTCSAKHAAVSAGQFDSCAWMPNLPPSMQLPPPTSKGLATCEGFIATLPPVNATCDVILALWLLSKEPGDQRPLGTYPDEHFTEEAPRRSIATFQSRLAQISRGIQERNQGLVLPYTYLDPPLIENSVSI
Procedure: The inhibitory effects of different concentrations of RG7774 (0.1-500 µM) on the activities of human recombinant 5-LOX (Cayman Chemical Company #60402), 15-LOX (Cayman Chemical Company #10011263), and human platelet-derived 12-LOX were determined using the Biovision Lipoxygenase Activity Assay Kit (#BVN-K978-100). This kit converts the LOX substrate to an intermediate that reacted with the probe, generating a fluorescent product. The effect of RG7774 (preincubated for 15 min) at 10 µM on LOXs (5-LOX: 0.5 or 1.2 µg; 12-LOX: 20 µg; 15-LOX: 0.23 or 0.3 µg) was ascertained by adding the compounds directly to the incubation medium and the fluorescent signal, recorded at excitation/emission 500/536 nm at 30 sec intervals for 30-40 min, was directly proportional to LOX activity. […] The percentage of human 5-, 12-, and 15-LOX activity (control) was estimated from the amount of oxidized probe in the reaction using a standard curve.

SMILES: Cn1nnnc1Cn1nnc2c(N3CC[C@H](O)C3)nc(C(C)(C)C)nc21 [RG7774, (S)-1-(5-tert-butyl-3-[(1-methyl-1H-tetrazol-5-yl)methyl]-3H-[1,2,3]triazolo[4,5-d]pyrimidin-7-yl)pyrrolidin-3-ol]
- concentrations in retina and choroid/retinal pigment epithelium tissues relative to plasma (Ocular tissue PK in rats): in the same range as the total plasma concentration
- exposure in the vitreous humor relative to plasma (Ocular tissue PK in rats): closer to that found in free plasma
- Ki [1]: 39.7 ± 13.5 nM
- FaSSIF ([2]; fasted simulated gastrointestinal fluid): 1177 µg/mL
- FeSSIF ([2]; fed simulated gastrointestinal fluid): 2872 µg/mL
- THESA ([2]; thermodynamic solubility): 901 µg/mL
- Mean ± SEM % inhibition of control, Mouse DAGL (Mouse DAGL): 17.0 ± 17.7%
- EC50 (endogenous CB2R): 38.5 ± 15 nM
- inhibition at 10 µM (Human 15-LOX): -8.7%
